Test results: patent US20110124701A1, “USE OF HDAC INHIBITORS FOR THE TREATMENT OF LYMPHOMAS” (NOVARTIS AG, priority 2006, published 2011)

Columns and labels:
[1] = tested on: HuT78 CTCL cell line; assay: Monolayer growth inhibition assay (MTT/MTS), HuT78; type: cell-based
Experimental: (§1) The antibiotics penicillin 100 units/mL) and streptomycin (100 μg/mL) were added to prevent bacterial contamination and maintained at 37° C. and 5% CO2 environment in a sterile incubator.
(§2) The MTT is a colorimetric assay to determine the cell proliferation rate. The yellow tetrazolium MTT (3-(4,5-dimethylthiazolyl-2)-2,5-diphenyltetrazolium bromide) is reduced by metabolically active cells, in part by the action of dehydrogenase enzymes, to generate reducing equivalents, such as NADH and NADPH. The resulting intracellular purple formazan can be solubilized and quantified by spectrophotometric means. The signals produced is directly proportional to the cell numbers. Describing the MTT assay in detail, experiments were done using 6-point or 9-point drug titrations in multi-well tissue culture dishes, with outer rows left empty. Cells were suspended in complete media at densities of between 10^3 and 10^4 cell/mL, respectively, and added per well. The appropriate medium (200 μL) was then added. Twenty-four hours later, 10 μL of MTS solution, were added to one plates to determine the activity at the time of compound addition (T0). […] The T0 plate served as a reference for initial activity at the beginning of the experiment.
(§3) Compound addition began 24 hours after seeding, the same time as the T0 determination. […] Each of the six dilutions were added in triplicate and complete medium was added to the empty outer rows without cells. […] The plates were incubated at 37° C. for 72 hours from seeding. The MTS solution was added (as for the T0 plate) and read four hours later. In order to analyze the data, the average value of media alone (background) was subtracted from each experimental well and the triplicate values were averaged for each compound dilution. The following formulas were used to calculate percent growth.
(§4) If X>T0, % Growth=100×((X−T0)/(GC−T0))
(§5) If X<T0, % Growth=100×(X−T0)/T0)
(§6) T0=average value of T0 minus background GC=average value of untreated cells (in triplicate) minus background X=average value of compound treated cells (in triplicate) minus background […]

[2] = tested on: HH CTCL cell line; assay: Monolayer growth inhibition assay (MTT/MTS), HH; type: cell-based
Experimental: as §1, §2, §3, §4, §5, §6

[3] = tested on: MJ CTCL cell line; assay: Monolayer growth inhibition assay (MTT/MTS), MJ; type: cell-based, human
Experimental: (§7) Cell lines derived from human CTCL (mycosis fungoides), HUT78, HUT102, HH and MJ were treated with Compound III (LBH589) to assess their sensitivity to the drug. Cells were generally maintained in artificial media, such as Dubelco Modified Eagle Medium (DMEM) or RPMI and supplemented with various levels up to 15% fetal bovine serum. The antibiotics penicillin 100 units/mL) and streptomycin (100 μg/mL) were added to prevent bacterial contamination and maintained at 37° C. and 5% CO2 environment in a sterile incubator.
(§8) The MTT is a colorimetric assay to determine the cell proliferation rate. The yellow tetrazolium MTT (3-(4,5-dimethylthiazolyl-2)-2,5-diphenyltetrazolium bromide) is reduced by metabolically active cells, in part by the action of dehydrogenase enzymes, to generate reducing equivalents, such as NADH and NADPH. The resulting intracellular purple formazan can be solubilized and quantified by spectrophotometric means. The signals produced is directly proportional to the cell numbers. Describing the MTT assay in detail, experiments were done using 6-point or 9-point drug titrations in multi-well tissue culture dishes, with outer rows left empty. Cells were suspended in complete media at densities of between 10^3 and 10^4 cell/mL, respectively, and added per well. The appropriate medium (200 μL) was then added. Twenty-four hours later, 10 μL of MTS solution, were added to one plates to determine the activity at the time of compound addition (T0). This plate was incubated at 37° C. for 4 hours and the optical density was measured on a Molecular Devices Thermomax at 490 nm using the Softmax program. The T0 plate served as a reference for initial activity at the beginning of the experiment.
(§9) Compound addition began 24 hours after seeding, the same time as the T0 determination. […] Each of the six dilutions were added in triplicate and complete medium was added to the empty outer rows without cells. The compounds were added to the plates singly or in combination with Compound III (LBH589). The plates were incubated at 37° C. for 72 hours from seeding. The MTS solution was added (as for the T0 plate) and read four hours later. In order to analyze the data, the average value of media alone (background) was subtracted from each experimental well and the triplicate values were averaged for each compound dilution. The following formulas were used to calculate percent growth.
as §4, §5, §6

[4] = tested on: HuT102 CTCL cell line; assay: Monolayer growth inhibition assay (MTT/MTS), HuT102; type: cell-based, human
Experimental: as §7, §8, §9, §4, §5, §6

[5] = tested on: HH CTCL mouse tumor xenografts; assay: HH CTCL tumor xenograft in mice; type: in vivo; conditions: 2 weeks
Experimental: Additionally, Compound III (LBH589) induced the regression of the HH CTCL mouse tumor xenografts in vivo. Mice were implanted with the HH CTCL cell lines and after tumors have grown to 150 mm^3, the mice were separated into four groups each containing eight mice. The groups of mice were dosed intravenously with vehicle, 5 mg/kg, 10 mg/kg, or 15 mg/kg daily.

[6] = tested on: advanced-stage CTCL; assay: Phase I study in patients with advanced-stage CTCL; type: in vivo, human
Experimental: Adult patients with histologically-confirmed, advanced solid tumors or non-Hodgkin's lymphoma including CTCL whose disease has progressed despite standard therapy or for whom no standard therapy exists, will be enrolled onto arms 1-3.
Patients with advanced-stage CTCL were entered into a Phase I study. All patients had progressed following prior systemic therapy. Patients were entered into the DLT, […], dose level 30 mg M,W,F cohort (n=1) or the subsequent MTD, maximum tolerated dose, dose level 20 mg M,W,F weekly (n=8). Compound (III) was continued until disease progression or unacceptable toxicity. The first three patients had 3 mm punch biopsies from CTCL-involved skin lesions performed at 0, 4, 8 and 24 hours after administration, which were subjected to gene expression profiling. Microarray analysis was performed using the Affymetrix U133 plus 2.0 GeneChip that has 47,000 probesets and interrogates 38,500 genes.

[7] = of 9 CTCL patients evaluable for response, 20 or 30 mg M,W,F

Cc1[nH]c2ccccc2c1CCNCc1ccc(/C=C/C(=O)NO)cc1 [Compound III, N-hydroxy-3-[4-[[[2-(2-methyl-1H-indol-3-yl)-ethyl]-amino]methyl]phenyl]-2E-2-propenamide]
sensitivity (IC50) in words ([1]; HUT78 cells): extreme subnanomolar sensitivity | IC50 ([1]; Homo sapiens, HuT78, 72 h, read-out: IC50 (concentration required to inhibit cell growth by 50%)): 0.2 nM | LD50 (concentration required to reduce cell number to 50% of the original inoculum) ([1]; HuT78 cells, 72 hours): 0.003 µM | sensitivity (IC50) in words ([2]; HH cells): extreme subnanomolar sensitivity | LD50 (concentration required to reduce cell number to 50% of the original inoculum) ([2]; HH cells, 72 hours): 0.0025 µM | IC50 ([2]; Homo sapiens, HH, 72 h, read-out: IC50 (concentration required to inhibit cell growth by 50%)): 0.7 nM | IC50 ([3]; Homo sapiens, 72 h, read-out: IC50 (concentration required to inhibit cell growth by 50%)): 0.3 nM | sensitivity (IC50) in words ([3]; MJ cells): extreme subnanomolar sensitivity | LD50 (concentration required to reduce cell number to 50% of the original inoculum) ([3]; MJ cells, 72 hours): >10 µM | sensitivity to induced cell death in words ([3]; MJ cells, HTLV infection): insensitive | sensitivity (IC50) in words ([4]; HUT102 cells): extreme subnanomolar sensitivity | sensitivity to induced cell death in words ([4]; HUT102 cells, HTLV infection): insensitive | IC50 ([4]; Homo sapiens, HuT-102, 72 h, read-out: IC50 (concentration required to inhibit cell growth by 50%)): 0.4 nM | LD50 (concentration required to reduce cell number to 50% of the original inoculum) ([4]; HuT102 cells, 72 hours): >10 µM | effect on tumor growth ([5]; 5 mg/kg daily iv): tumor growth inhibition | effect on tumor growth ([5]; 10 mg/kg daily iv): almost complete tumor regression | effect on tumor growth ([5]; 15 mg/kg daily iv): almost complete tumor regression | MTD, maximum tolerated dose, dose level ([6]; M,W,F weekly, CTCL patients): 20 mg | time to progression of a responding patient with CR ([6]; discontinued after 10 doses due to Grade III diarrhea): 8 m | DLT dose level ([6]; human, in vivo): 30 mg | patients achieving stable disease (SD) with ongoing improvement [6, 7]: 1 patients | patients attaining a complete response (CR) [6, 7]: 2 patients | patients attaining a partial response (PR) [6, 7]: 2 patients | patients progressed on treatment (PD) [6, 7]: 4 patients
